From publication PMC11299271 (BMC Pharmacology & Toxicology, 2024)
Values joined by “and” are separate entries in the source; they are usually repeats but may differ in a detail not shown here. Equal values may be shown once. Read-outs that look alike come from different tables or passages of the source.

Assays:
[1] = Pharmacokinetic measurements in T2DM rats (plasma concentrations by UPLC-MS/MS, two-compartment PK model); format: in vivo; conditions: for C5ohsax, observed plasma concentration: individual rats
Method: . Plasma was obtained by centrifugation at 3000 r/min and stored at −80 °C until analysis.
Plasma concentrations of analytes were determined using the UPLC-MS/MS method above. […].

[2] = Plasma glucose concentration in T2DM rats (glucose oxidase method); format: in vivo
Method: Glucose concentration in the plasma was determined by Glucose test kit (glucose oxidase method, Rongsheng biological Pharmaceutical Co.,Ltd, Shanghai, China). All the procedures were conducted according to manufacturers’ instructions. All test specimens (plasma samples, blank and calibration samples) were done in flat bottom 96 well microplates; 2.5 µL serum or calibration, 250 µL solution were pipetted into each well of the microplate, and the blank control contain water. The results were tested at 37 °C for 10 min and an absorbance value of 505 nm in a continuous monitoring micro plate reader. Glucose concentration (mmol/L) = (sample tube absorbent/calibration tube absorbent) × calibration fluid concentration (5.55 mmol/L). All experiments were repeated two duplicates.

[3] = Plasma insulin concentration in T2DM rats (Rat INS ELISA Kit); format: in vivo
Method: Insulin concentration in the plasma was determined by Rat INS ELISA Kit (Zeye Biotechnology Co., Ltd., Shanghai, China). All the procedures were conducted according to manufacturers’ instructions. Test specimens (plasma samples, blank and calibration samples) were added to an antibody-coated 96-well plate followed by addition of biological agent and enzyme conjugate solution, these mixtures incubated 30 min at 37 °C. The plate was then washed after incubation and a mixture of chromogenic reagent A and B was added. Optical density values at 450 nm were measured after terminating the reaction, and insulin concentrations were calculated according to the standard curve within a range of 0–20 mU/L (0, 1.25, 2.5, 5, 10, 20 mU/L).

[4] = cited from earlier work
[5] = Stability of analytes in QC rat plasma (UPLC-MS/MS); format: physicochemical; conditions: for Stability, autosampler at 4 °C for up to 16 h (% of nominal): extracted plasma samples; for Stability, autosampler at 4 °C for up to 16 h (% of nominal) / Stability, 4 °C for 12 h (% of nominal) / Stability, freeze-thaw three cycles (% of nominal) / Stability, room temperature for 4 h (% of nominal) / Stability, −80 °C for 7 days (% of nominal): n = 3; for Stability, 4 °C for 12 h (% of nominal) / Stability, freeze-thaw three cycles (% of nominal) / Stability, room temperature for 4 h (% of nominal) / Stability, −80 °C for 7 days (% of nominal): rat plasma; for stability in plasma under storage conditions: room temperature (25 °C) 4 h, 4 °C 12 h, −80 °C 7 days, three freeze-thaw cycles, autosampler 4 °C up to 16 h
Method: The stability of analytes in QC plasma was evaluated by analyzing replicates (n = 3) of LQC, MQC, HQC samples placed on storage for 4 h at room temperature (25 °C), for 12 h at 4 °C, for 7 days at −80 °C, and after three freeze-thaw cycles from −80 °C to room temperature. […]

[6] = T2DM rats, i.g. 10 mg/kg SAX, two-compartment model with first order absorption, mean (n = 3)
[7] = i.g. 10 mg/kg SAX vs 0.5% CMC-Na
[8] = high QC: spiked 2000 ng/mL SAX, 400 ng/mL 5-OH SAX
[9] = low QC: spiked 15 ng/mL SAX, 3 ng/mL 5-OH SAX
[10] = T2DM rats, i.v. 0.5 mg/kg 5-OH SAX, Subject1, Subject2, Subject3, 0.5 mg/kg
[11] = T2DM rats, i.v. 0.5 mg/kg 5-OH SAX, two-compartment model, mean (n = 3)

## N#C[C@@H]1C[C@@H]2C[C@@H]2N1C(=O)[C@@H](N)C12CC3CC(CC(O)(C3)C1)C2 [SAX, Saxagliptin]
[1]; [6]
  CL2 (clearance rate of peripheral compartment): 284.8403 mL/min/kg
  CL (clearance rate of central compartment): 54.0967 mL/min/kg
  K12: 6.62 h⁻¹
  K21: 1.07 h⁻¹
  V2 (apparent distribution volume of peripheral compartment): 18.3933 L/kg
  V (apparent distribution volume of central compartment): 2.30724 L/kg
[1]; rat, plasma, po, 10 mg/kg
  Tmax: 6.6 min
[1]; rat, plasma, po, 10 mg/kg, T2DM rats, i.g. 10 mg/kg SAX, two-compartment model with first order absorption, mean (n = 3), read-out: t1/2Ka (absorption phase half-life) (converted)
  half-life: 4.2 min
[1]; rat, plasma, po, 10 mg/kg, T2DM rats, i.g. 10 mg/kg SAX, two-compartment model with first order absorption, mean (n = 3), read-out: t1/2a (distribution phase half-life) (converted)
  half-life: 4.8 min
[1]; rat, plasma, po, 10 mg/kg, T2DM rats, i.g. 10 mg/kg SAX, two-compartment model with first order absorption, mean (n = 3), read-out: t1/2β (elimination half-life) (converted)
  half-life: 368 min
[1]; rat, plasma, po, 10 mg/kg, read-out: AUC
  AUC: 3280 ng·h/mL
[1]; rat, plasma, po, 10 mg/kg, read-out: Cmax
  Cmax: 2200 ng/mL
[2]; [7]
  blood glucose compared to the control group: no significant differences
[3]; [7]
  insulin compared to the control group: no significant differences
[4]
  share of the dose metabolized in the liver by CYP3A4/5 to 5-OH SAX: about 50%
[4]; oral 5 mg SAX
  bioavailability: 75%
[5]; [8]
  Stability, autosampler at 4 °C for up to 16 h (% of nominal): 98.05 ± 2.04%
  Stability, 4 °C for 12 h (% of nominal): 99.09 ± 2.02%
  Stability, freeze-thaw three cycles (% of nominal): 95.84 ± 1.52%
  Stability, room temperature for 4 h (% of nominal): 99.59 ± 3.47%
  Stability, −80 °C for 7 days (% of nominal): 98.07 ± 2.07%
[5]; [9]
  Stability, autosampler at 4 °C for up to 16 h (% of nominal): 99.02 ± 2.00%
  Stability, 4 °C for 12 h (% of nominal): 100.60 ± 2.29%
  Stability, freeze-thaw three cycles (% of nominal): 96.71 ± 1.93%
  Stability, room temperature for 4 h (% of nominal): 99.02 ± 2.02%
  Stability, −80 °C for 7 days (% of nominal): 98.56 ± 2.14%
[5]
  stability in plasma under storage conditions: remained stable

## N#C[C@@H]1C[C@@H]2C[C@@H]2N1C(=O)[C@@H](N)C12CC3CC(O)(CC(O)(C3)C1)C2 [5-OH SAX, 5-hydroxy Saxagliptin]
[1]; [10]
  AUC, individual rats: 691.49 ng·h/mL and 452.17 ng·h/mL and 611.48 ng·h/mL
  Cl2, individual rats: 8.2463 mL/min/kg and 8.554 mL/min/kg and 6.7797 mL/min/kg
  Cl, individual rats: 12.051 mL/min/kg and 18.4298 mL/min/kg and 13.628 mL/min/kg
  K12, individual rats: 4.85 h⁻¹ and 2.93 h⁻¹ and 2.76 h⁻¹
  K21, individual rats: 3.41 h⁻¹ and 3.53 h⁻¹ and 3.31 h⁻¹
  V2, individual rats: 0.14522 L/kg and 0.14545 L/kg and 0.12277 L/kg
  V, individual rats: 0.10199 L/kg and 0.17509 L/kg and 0.14739 L/kg
  t1/2a, individual rats: 3 min and 3.6 min and 4.2 min
  t1/2β, individual rats: 23.4 min and 19.8 min and 22.2 min
[1]; T2DM rats, i.v. 0.5 mg/kg 5-OH SAX, nominal time 0.08 h, 0.5 mg/kg
  C5ohsax, observed plasma concentration: 1610.00 ng/mL and 1240.00 ng/mL
[1]; T2DM rats, i.v. 0.5 mg/kg 5-OH SAX, nominal time 0.17 h, 0.5 mg/kg
  C5ohsax, observed plasma concentration: 972.00 ng/mL and 684.00 ng/mL and 900.00 ng/mL
[1]; T2DM rats, i.v. 0.5 mg/kg 5-OH SAX, nominal time 0.25 h, 0.5 mg/kg
  C5ohsax, observed plasma concentration: 595.00 ng/mL and 387.00 ng/mL and 550.00 ng/mL
[1]; T2DM rats, i.v. 0.5 mg/kg 5-OH SAX, nominal time 0.50 h, 0.5 mg/kg
  C5ohsax, observed plasma concentration: 295.00 ng/mL and 192.00 ng/mL and 235.00 ng/mL
[1]; T2DM rats, i.v. 0.5 mg/kg 5-OH SAX, nominal time 0.75 h, 0.5 mg/kg
  C5ohsax, observed plasma concentration: 150.00 ng/mL and 91.70 ng/mL and 149.00 ng/mL
[1]; T2DM rats, i.v. 0.5 mg/kg 5-OH SAX, nominal time 2.00 h, 0.5 mg/kg
  C5ohsax, observed plasma concentration: 20.60 ng/mL and 8.16 ng/mL and 11.60 ng/mL
[1]; [11]
  AUC: 585.04 ng·h/mL
  CL2 (clearance rate of peripheral compartment): 7.86 mL/min/kg
  CL (clearance rate of central compartment): 14.703 mL/min/kg
  Cmax: 3716.88 ng/mL
  K12: 3.51 h⁻¹
  K21: 3.42 h⁻¹
  V2 (apparent distribution volume of peripheral compartment): 0.13781 L/kg
  V (apparent distribution volume of central compartment): 0.14149 L/kg
  t1/2a (distribution phase half-life): 3.6 min
  t1/2β (elimination half-life): 21.6 min
[2]; tail vein 0.5 mg/kg 5-OH SAX vs saline, 0.08, 0.17, 0.25 and 0.5 h (P<0.05)
  blood glucose compared to the control group: significant differences
[3]; tail vein 0.5 mg/kg 5-OH SAX vs saline, within the sampling range
  insulin compared to the control group: no significant differences
[4]; after SAX
  systemic exposure in plasma relative to the parent drug SAX: about 3 times
[5]; [8]
  Stability, autosampler at 4 °C for up to 16 h (% of nominal): 101.22 ± 2.47%
  Stability, 4 °C for 12 h (% of nominal): 99.32 ± 2.66%
  Stability, freeze-thaw three cycles (% of nominal): 95.79 ± 2.16%
  Stability, room temperature for 4 h (% of nominal): 98.51 ± 2.19%
  Stability, −80 °C for 7 days (% of nominal): 97.49 ± 2.52%
[5]; [9]
  Stability, autosampler at 4 °C for up to 16 h (% of nominal): 100.44 ± 3.10%
  Stability, 4 °C for 12 h (% of nominal): 100.67 ± 2.52%
  Stability, freeze-thaw three cycles (% of nominal): 94.89 ± 2.91%
  Stability, room temperature for 4 h (% of nominal): 99.78 ± 2.22%
  Stability, −80 °C for 7 days (% of nominal): 95.11 ± 4.55%
[5]
  stability in plasma under storage conditions: remained stable
